Laboratory results as given in PubChem BioAssay (NCI).
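Exposure lasted 48 hours, with cells grown in 96-well plates and compounds tested at five concentrations. GI50 marks 50% less growth. TGI marks complete inhibition of growth.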

How the values were obtained:
Assay in all cases: DTP human tumour cell line panel, 48 h
NCI-H460 lung = test system: NCI-H460 lung
RXF 393 renal = test system: RXF 393 renal
MDA-MB-435 = test system: MDA-MB-435
DU-145 prostate = test system: DU-145 prostate
CCRF-CEM leukemia = test system: CCRF-CEM leukemia
HL-60(TB) leukemia = test system: HL-60(TB) leukemia
TK-10 renal = test system: TK-10 renal
SNB-75 CNS = test system: SNB-75 CNS
MALME-3M melanoma = test system: MALME-3M melanoma
NCI-H226 lung = test system: NCI-H226 lung

| SMILES | TGI (NCI-H460 lung) | TGI (RXF 393 renal) | TGI (MDA-MB-435) | TGI (DU-145 prostate) | TGI (CCRF-CEM leukemia) | TGI (HL-60(TB) leukemia) | TGI (TK-10 renal) | TGI (SNB-75 CNS) | TGI (MALME-3M melanoma) | TGI (NCI-H226 lung) | GI50 (HL-60(TB) leukemia) |
| --- | --- | --- | --- | --- | --- | --- | --- | --- | --- | --- | --- |
| Clc1cc(OCC23CC4CC(CC(C4)C2)C3)nc(OCC23CC4CC(CC(C4)C2)C3)n1 | > 100 µM | > 100 µM | > 100 µM | > 100 µM | > 100 µM | > 100 µM | > 100 µM | > 100 µM | > 100 µM |  |  |
| COP(=O)(OC)c1ccc(NCc2cc(O)ccc2O)cc1 | 45.4 µM | 74.9 µM | 74.1 µM | > 90.5 µM | > 95.3 µM | > 92.2 µM | 53.9 µM | > 77.7 µM | 39.1 µM | > 77.9 µM |  |
| COc1cc([C@@H]2c3cc4c(cc3[C@@H](N=Cc3ccc(C(=O)O[C@@H](C(=O)O[C@H]5C[C@@]6(O)[C@@H](OC(=O)c7ccccc7)[C@@H]7[C@]8(OC(C)=O)CO[C@@H]8C[C@H](O)[C@@]7(C)C(=O)[C@H](OC(C)=O)C(=C5C)C6(C)C)[C@@H](NC(=O)c5ccccc5)c5ccccc5)cc3)[C@H]3COC(=O)[C@H]23)OCO4)cc(OC)c1O | > 50 µM | > 31.1 µM | 0.00867 µM | > 42.5 µM |  | 0.182 µM | > 50 µM |  | > 50 µM |  |  |
| O=C1c2ccccc2-c2nnc(-c3ccc(Cl)cc3)cc21 | > 10 µM | > 10 µM | > 10 µM | > 10 µM | > 10 µM | > 10 µM |  | > 10 µM | > 10 µM | > 10 µM |  |
| O=C(Cn1c(=O)oc2ccc(C(=O)c3ccccc3Cl)cc21)c1ccc([N+](=O)[O-])cc1 | 55.7 µM |  | 46.6 µM | > 100 µM | > 100 µM | > 100 µM | > 100 µM | > 100 µM | 69.5 µM | > 100 µM |  |
| CNc1ncnc2c1nnn2C |  | > 100 µM | > 100 µM | > 100 µM | > 100 µM | > 100 µM | > 100 µM | > 100 µM | > 100 µM | > 100 µM |  |
| COc1cc(O)c2c(=O)c(OC)c(-c3ccc4c(c3)OCO4)oc2c1OC | > 50 µM | > 50 µM | > 50 µM | > 50 µM | > 50 µM | > 50 µM | > 50 µM | 31.9 µM | > 50 µM | > 50 µM |  |
| CC(C)(C)OC(=O)N1Cc2cc(O)ccc2C[C@H]1C(=O)O | > 100 µM | > 100 µM | > 100 µM | > 100 µM | > 100 µM | > 100 µM | > 100 µM | > 100 µM | > 100 µM | > 100 µM |  |
| O=[N+]([O-])c1ccc2nc(/C=C(\O)c3ccccc3)c(/C=C(\O)c3ccccc3)nc2c1 | > 81 µM | 38.2 µM | > 56.2 µM | > 91 µM | 35.8 µM | 52.6 µM | 63 µM | 32.1 µM | > 100 µM | > 100 µM | 13.6 µM |
| CC1C2CC(CC2N)C1(C)C (centres undefined) | > 100 µM |  | > 100 µM | > 100 µM | > 100 µM | > 100 µM | > 100 µM | > 100 µM | > 100 µM | > 100 µM |  |
| O=c1oc2c/c(=C\c3ccccc3)c(=O)c3cccc1c3-2 | > 100 µM | 72.6 µM | 51.7 µM | > 100 µM |  | 71.1 µM | > 100 µM | > 100 µM | 52.7 µM | 75.3 µM |  |
| CCOC(=O)c1cn(CC)c2cc3c(cc2c1=O)CCS3(=O)=O | > 100 µM | > 100 µM | > 100 µM | > 100 µM | > 100 µM | > 100 µM | > 100 µM |  | > 100 µM | > 100 µM |  |
| NC(=O)CCC(NC(=O)c1cccc2c(=O)c3ccccc3[nH]c12)C(=O)O (centres undefined) |  |  | > 100 µM | > 100 µM |  | > 100 µM | > 100 µM | > 100 µM | > 100 µM | > 100 µM |  |
| Cc1oncc1NC1=CC(=O)C(=O)c2ccccc21 | 20.3 µM | 27.5 µM | 3.51 µM | 31.7 µM | 15 µM | 7.06 µM | 45.2 µM | 27.2 µM | 8.69 µM | 39.4 µM |  |
| COC(=O)c1c(O)ccc2c1c1c(n2Cc2ccccn2)C(=O)c2ccccc2C1=O | > 100 µM | > 100 µM | > 100 µM | > 100 µM | > 100 µM | > 100 µM | > 100 µM |  | 89.8 µM | > 100 µM |  |
| CNC(=O)c1ccccc1[S+]1c2cccc3cccc(c23)C(=O)N1C (centres undefined) |  | > 100 µM | > 100 µM | > 100 µM | > 100 µM | > 100 µM | > 100 µM |  | > 100 µM | > 100 µM |  |
| CSC1(SC)N2Cc3ccccc3N=C2C1(c1ccccc1)c1ccccc1 | 64.3 µM | > 48.6 µM | 16 µM | > 100 µM | > 65 µM | > 53.1 µM | > 100 µM | > 100 µM | 27.6 µM | > 100 µM |  |
| NNC(=O)CCC(NS(=O)(=O)c1ccc(Cl)cc1)C(=O)NN (centres undefined) | > 100 µM | > 100 µM | > 100 µM | > 100 µM | > 100 µM | > 100 µM | > 100 µM | > 100 µM | > 100 µM | > 100 µM |  |
| COC12OC3CC4(C)C(=CC3OC(OC(C)C1O)C2O)CCC1C4CCC2(C)C(c3ccc(=O)oc3)CCC12O (centres undefined) | 0.00224 µM | 0.0116 µM | 0.00564 µM | 0.00209 µM | 0.00208 µM | 0.00215 µM | 0.00216 µM | 0.00571 µM | 0.00391 µM | 0.00676 µM |  |
| CN(C)CCCNc1cnc2cc3ccccc3cc2n1 | > 100 µM | 50.2 µM | 79.2 µM | > 100 µM | 88.1 µM | 68.3 µM | 78.2 µM | 70.6 µM | 44.5 µM | 40.6 µM |  |
| COc1ccc2oc(=Nc3ccc(F)cc3)c(C(N)=O)cc2c1 | > 100 µM | 37.3 µM | > 100 µM | > 100 µM | > 100 µM | > 100 µM | 58 µM | 29.5 µM | > 100 µM | > 100 µM |  |
| CC1=Nc2c(C#N)ncn2N=C(C)C1 | > 100 µM | > 100 µM | > 100 µM | > 100 µM | > 100 µM | > 100 µM | > 100 µM | > 100 µM |  | > 100 µM |  |
